Assay results reported in patent US20200016086A1, “Nanoparticulate Materials and Methods for Targeting Iron Acquisition and Metabolism for Treating Bacterial Infections” (KENT STATE UNIVERSITY, priority 2017, published 2020).

Tests used:
[1] = system: Staphylococcus aureus; assay: Bacterial cytotoxicity / growth inhibition of S. aureus in TSB medium (OD600); type: cell-based; details: concentration range of 10 μM to 400 μM
[2] = type: physicochemical; details: buffer
Protocol: The kinetics of Fe^2+ removal was followed by measuring the decrease of Fe^2+ ion concentration in aqueous solution where the dialysis bag containing the PVP-coated CaPB NPs was immersed. The simultaneous increase of Ca^2+ ion concentration in the same solution was also determined quantitatively by AAS to verify the kinetics (FIG. 5b).

Row | Compound | effect on growth of S. aureus [1] | half-life T1/2 of Fe^2+ removal [2]
1 | [Ca+2].[Cl-].[Cl-] [CaCl2] | no effect on growth | –
2 | KCa[Fe^III(CN)6].n H2O [CaPB^III NPs] | – | 55 min
